The target in series [1] is T1, SF9 affinity purified rat FPT (Rattus norvegicus, UniProt Q02293+Q04631).
T1 construct: made in house; host or cells: Sf9 insect cells
Kind of series: PFT (farnesyl protein transferase) inhibitory activity, radiolabeled farnesyl pyrophosphate / biotinyl peptide bead assay. In kind it is biochemical. As to conditions: average of two tests unless n is given in parentheses; read-out: FTase, IC50. As for the experimental part:
The protein:farnesyl transferase (PFT) or farnesyl protein transferase (FPT) inhibitory activity of compounds of the present invention were assayed in HEPES buffer (pH 7.4) containing 5 mM potassium phosphate and 20 μM ZnCl2. The solution also contained 5 mM DTT (dithiothreitol), 5 mM MgCl2, and 0.1% PEG 8000. Assays were performed in 96 well plates (Wallec) and employed solutions composed of varying concentrations of a compound of the present invention in 10% DMSO (dimethylsulfoxide). Upon addition of both substrates, radiolabeled farnesyl pyrophosphate ([1^3H], specific activity 15-30 Ci/mmol, final concentration 134 nM) and (biotinyl)-Ahe-Thr-Lys-Cys-Val-Ile-Met ([3aS[3a alpha, 4 beta, 6a alpha]-hexahydro-2-oxo-1H-thieno[3,4-d]imidazole-5-pentanoic acid]-[7-aminoheptanoic acid]-Thr-Lys-Cys-Val-Ile-Met) (Ahe is 7-aminoheptanoic acid, Thr is threonine, Lys is lysine, Cys is cysteine, Val is valine, Ile is isoleucine, and Met is methionine) (final concentration 0.2 μM), the enzyme reaction was started by addition of SF9 affinity purified rat FPT. After incubation at 30° C. for 30 minutes, the reaction was terminated by diluting the reaction 2.5-fold with a stop buffer containing 1.5 M magnesium acetate, 0.2 M H3PO4, 0.5% BSA (bovine serum albumin), and strepavidin beads (Amersham) at a concentration of 1.3 mg/mL. After allowing the plate to settle for 30 minutes at room temperature, radioactivity was quantitated on a microbeta counter (Model 1450, Wallec). The assay was also carried out without 5 mM potassium phosphate.

Turning to `O=C1C(=Cc2cc(Br)cs2)CCc2cc(OCCn3ccnc3)ccc21` [Example 17, 2-(4-Bromo-thiophen-2-ylmethylene)-6-(2-imidazole-1-yl-ethoxy)-3,4-dihydro-2H-naphthalen-1-one], the melting point (in general, the temperature, or range, at which the solid turns liquid) lay within 164 to 166 °C. Also, the IC50 (commonly the concentration needed to halve the response being measured) in series [1] turned out to be 100 nM.
On to `CC(COc1ccc2c(c1)CCCC2=O)n1ccnc1` (centres unmarked) [Example 78, 6-[2-(1H-1-Imidazolyl)propoxy]-1,2,3,4-tetrahydro-1-naphthalenone], for which the melting point was 132 to 135 °C. Moreover, in series [1], the IC50 is 2600 nM.
The like results for `O=C1C(=Cc2ccsc2)CCc2cc(OCCn3ccnc3)ccc21` [Example 11, 6-(2-Imidazole-1yl-ethoxy)-2-thiophen-3-ylmethylene-3,4-dihydro-2H-naphthalen-1-one] were, in that order, 61 to 62 °C and 120 nM.
Take `O=C1C(=Cc2ccco2)CCc2cc(OCCn3ccnc3)ccc21` [Example 16, 2-Furan-2-ylmethylene-6-(2-imidazole-1-yl-ethoxy)-3,4-dihydro-2H-naphthalen-1-one]: the melting point is 109 to 110 °C. In addition, the IC50 in series [1] was determined as 110 nM.
`ON=C1CCCc2cc(OCCn3ccnc3)ccc21` [Example 53, 6-[2-(1H-1-Imidazolyl)ethoxyl]-1,2,3,4-tetrahydro-1-naphthalenone oxime] yielded a melting point of 177 to 179 °C. The IC50 in series [1] was found to be 3000 nM.
The compound `O=C1CC(c2ccccc2)Oc2cc(OCCn3ccnc3)ccc21` (centres unmarked) [Example 76, 7-[2-(1H-1-Imidazolyl)ethoxy]-2-phenyl-4-chromanone] returned a melting point of 139 to 140 °C. In addition, in series [1], the half-inhibitory concentration (IC50) was determined as 120 nM.
The corresponding values for `O=C(O)c1ccc(C=C2CCc3cc(OCCn4ccnc4)ccc3C2=O)cc1` [Example 12, 4-[6-(2-Imidazole-1-yl-ethoxy)-1-oxo-3,4-dihydro-1H-naphthalen-2-ylidenemethyl]-benzoic acid] are 267 to 267.5 °C and 600 nM.
On to `Cl.O=C1CCCc2cc(OCCCc3c[nH]cn3)ccc21` [Example 43, 6-[3-(1H-Imidazole-4-yl)-propoxy]-3,4-dihydro-2H-naphthalen-1-one, hydrochloride], for which the melting point was 153 to 155 °C. Besides, the IC50 in series [1] worked out at 4400 nM.
In the case of `CC(COc1ccc2c(c1)CC/C(=C\c1cccs1)C2=O)n1ccnc1` (centres unmarked) [Example 79, 6-[2-(1H-1-Imidazolyl)propoxy]-2-[(E)-1-(2-thienyl)methylidene]-1,2,3,4-tetrahydro-1-naphthalenone], the melting point fell in the range of 160 to 162 °C. For the same compound, the IC50 in series [1] came to 230 nM.
For the compound `O=C1C(=Cc2ccc(-c3cccs3)s2)CCc2cc(OCCn3ccnc3)ccc21` [Example 21, 2-[2,2′]Bithiophenyl-5-ylmethylene-6-(2-imidazole-1-yl-ethoxy)-3,4-dihydro-2H-naphthalen-1-one], the melting point was in the range of 180 to 181 °C. Also, the IC50 in series [1] amounted to 2800 nM.
Compound `O=C1C(=Cc2ccc(Br)cc2)CCc2cc(OCCc3c[nH]cn3)ccc21` [Example 42, 2-(4-Bromo-benzylidene)-6-[2-(1H-imidazole-4-yl)-ethoxy]-3,4-dihydro-2H-naphthalen-1-one] yielded a melting point of 176 to 178 °C. For the same compound, the IC50 in series [1] stood at 5900 nM.
As for `O=C(O)CON=C1CCCc2cc(OCCn3ccnc3)ccc21` [Example 54, [6-(2-Imidazol-1-yl-ethoxy)-3,4-dihydro-2H-naphthalen-1-ylideneaminooxy]-acetic acid], the melting point was in the range of 193 to 195 °C. Further, in series [1], the IC50 is 340 nM.
For `O=C1C(=Cc2cccs2)CCc2cc(OCCc3c[nH]cn3)ccc21` [Example 29, 6-[2-(1H-Imidazole-4-yl)-ethoxy]-2-thiophen-2-ylmethylene-3,4-dihydro-2H-naphthalen-1-one], the melting point lay in the range of 60 to 63 °C. For the same compound, in series [1], the IC50 was 88 nM.

The record behind these values is patent US6528535B2, “Bicyclic inhibitors of protein farnesyl transferase” (Warner-Lambert Company, priority 1997, dated 2003).
